pIC50: −log10 of the molar value. Where two headings read alike, the source gives them in different places.
Tests used:
[1] = molecular target: T1, human recombinant PTP1B (hGST-PTP1B) (Homo sapiens, UniProt P18031); test: PTP1B inhibitory assay (pNPP hydrolysis, absorbance at 405 nm); format: biochemical; conditions: 2 mM pNPP, 30 nM hGST-PTP1B, pH 6.5, 30° C.; for inhibition at 5 µg/mL: 5 μg/mL compound; for inhibition at 20 µg/mL: 20 μg/mL compound
T1 construct: made in house; host or cells: E. coli BL21
T1 sequence (P18031 1-435): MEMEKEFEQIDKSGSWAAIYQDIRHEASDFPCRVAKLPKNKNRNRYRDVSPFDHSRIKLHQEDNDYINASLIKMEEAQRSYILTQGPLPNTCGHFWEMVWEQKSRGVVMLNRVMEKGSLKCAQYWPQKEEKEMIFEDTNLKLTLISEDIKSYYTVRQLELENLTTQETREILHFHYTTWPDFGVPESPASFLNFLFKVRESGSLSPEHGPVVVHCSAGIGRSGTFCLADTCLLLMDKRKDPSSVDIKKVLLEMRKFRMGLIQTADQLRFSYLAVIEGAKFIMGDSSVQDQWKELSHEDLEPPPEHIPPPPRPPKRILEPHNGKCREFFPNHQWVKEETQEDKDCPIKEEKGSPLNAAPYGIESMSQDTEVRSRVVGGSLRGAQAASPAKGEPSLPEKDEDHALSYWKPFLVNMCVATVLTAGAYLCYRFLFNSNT
Description: Construct human recombinant PTP1B engineering bacteria hGST-PTP1B-BL21 via molecular biology methods, and purify it through GST-tagged affinity chromatography. The principle is that the product pNP, which is enzymolysis of pNPP by PTP1B, absorbs at 405 nm. The activity of PTP1B inhibition can be measured by calculating the quantity of pNP.
Compounds 1-12 were dissolved in DMSO. 2 μL of samples were placed into the system (50 mM Tris-HCl, pH 6.5, 2 mM pNPP, 2% DMSO, 30 nM hGST-PTP1B). DMSO was distributed as negative control and Na3VO4 was positive control. The reaction was at 30° C. and monitored at 405 nm for 3 min. Inhibitory rate was calculated according to the following formula: % inhibition=100% ×[(Vsample−VDMSO)/[…]]

PTP1B = molecular target: T2, PTP1B (Homo sapiens, UniProt P18031); conditions: background statement; read-out: IC50 (PTP1B inhibitor); cited from earlier work
T2 sequence (P18031 1-435): T1 sequence (P18031 1-435)

With `COc1cc(C(=O)c2c(C(Br)Br)cc(OC)c(OC)c2Br)c(Br)c(Br)c1OC` [Compound 1, (2′-bromo-6′-(dibromomethyl)-3′,4′-dimethoxyphenyl)-(2,3-dibromo-4,5-dimethoxyphenyl)-methanone] as the compound, how does the inhibition at 5 µg/mL [1] read?
The inhibition at 5 µg/mL was 47.9%.

What about the inhibition at 20 µg/mL [1] of the same compound?
Its inhibition at 20 µg/mL is 101%.

What about the IC50 ([1]; read-out: IC50 (converted)) of the same compound?
The IC50 was 1840 nM.

Which results are given for `CCCOCc1cc(O)c(O)c(Br)c1Cc1cc(O)c(O)c(Br)c1Br` [Compound 2, 3,4-dibromo-5-[2′-bromo-3′,4′-dihydroxy-6′-(propoxymethyl)-benzyl]-benzene-1,2-diol]?
inhibition at 5 µg/mL [1]: 55.7%; inhibition at 20 µg/mL [1]: 86.2%; IC50 [1]: 1.08 µg/mL

Which inhibition at 5 µg/mL [1] does the source give for `CC(C)OCc1cc(O)c(O)c(Br)c1Cc1cc(O)c(O)c(Br)c1Br` [Compound 3, 3,4-dibromo-5-[2′-bromo-3′,4′-dihydroxy-6′-(isopropoxymethyl)-benzyl]-benzene-1,2-diol] here?
Its inhibition at 5 µg/mL is 68.2%.

What about the inhibition at 20 µg/mL [1] of the same compound?
The inhibition at 20 µg/mL was 93.9%.

And the IC50 ([1]; read-out: IC50 (converted))?
Its IC50 is 628 nM.

With `CCCCOCc1cc(O)c(O)c(Br)c1Cc1cc(O)c(O)c(Br)c1Br` [Compound 4, 3,4-dibromo-5-[2′-bromo-6′-(butoxymethyl)-3′,4′-dihydroxy-benzyl]-benzene-1,2-diol] as the compound, how does the inhibition at 5 µg/mL [1] read?
The inhibition at 5 µg/mL was 27.2%.

And the inhibition at 20 µg/mL [1]?
Its inhibition at 20 µg/mL is 64.6%.

With `CC(C)COCc1cc(O)c(O)c(Br)c1Cc1cc(O)c(O)c(Br)c1Br` [Compound 5, 3,4-dibromo-5-[2′-bromo-3′,4′-dihydroxy-6′-(isobutoxymethyl)-benzyl]-benzene-1,2-diol] as the compound, how does the inhibition at 5 µg/mL [1] read?
Its inhibition at 5 µg/mL is 48.3%.

And the inhibition at 20 µg/mL [1]?
The inhibition at 20 µg/mL was 96.2%.

What about the IC50 [1] of the same compound?
Its IC50 is 0.83 µg/mL.

For `CCC(C)OCc1cc(O)c(O)c(Br)c1Cc1cc(O)c(O)c(Br)c1Br` (centres unmarked) [Compound 6, 3,4-dibromo-5-(2-bromo-6-(sec-butoxymethyl)-3,4-dihydroxybenzyl)benzene-1,2-diol], which inhibition at 5 µg/mL [1] is on record?
Its inhibition at 5 µg/mL is 42.4%.

And the inhibition at 20 µg/mL [1]?
The inhibition at 20 µg/mL was 96.5%.

And the IC50 ([1]; read-out: IC50 (converted))?
Its IC50 is 1820 nM.

Which inhibition at 20 µg/mL [1] does the source give for `COc1cc(Br)c(Cc2cc(OC)c(OC)c(Br)c2Cc2cc(OC)c(OC)c(Br)c2Br)cc1OC` [Compound 7, 2,3-dibromo-1-[2′-bromo-6′-(2″-bromo-4″,5″-dimethoxybenzyl)-3′,4′-dimethoxybenzyl]-4,5-dimethoxybenzene] here?
The inhibition at 20 µg/mL was 101%.

Which inhibition at 5 µg/mL [1] does the source give for `CCCOCc1cc(O)c(O)c(Br)c1Cc1c(Br)c(O)c(O)c(Br)c1Br` [Compound 8, 3,4,6-tribromo-5-(2-bromo-3,4-dihydroxy-6-(propoxymethyl)benzyl)benzene-1,2-diol] here?
The inhibition at 5 µg/mL was 42.4%.

And the inhibition at 20 µg/mL [1]?
The inhibition at 20 µg/mL was 98.8%.

What about the IC50 ([1]; read-out: IC50 (converted)) of the same compound?
Its IC50 is 1630 nM.

For `CC(C)OCc1cc(O)c(O)c(Br)c1Cc1c(Br)c(O)c(O)c(Br)c1Br` [Compound 9, 3,4,6-tribromo-5-(2-bromo-3,4-dihydroxy-6-(isopropoxymethyl)benzyl)benzene-1,2-diol], which inhibition at 20 µg/mL [1] is on record?
The inhibition at 20 µg/mL was 98.5%.

For `CCCCOCc1cc(O)c(O)c(Br)c1Cc1c(Br)c(O)c(O)c(Br)c1Br` [Compound 10, 3,4,6-tribromo-5-(2-bromo-6-(butoxymethyl)-3,4-dihydroxybenzyl)benzene-1,2-diol], which inhibition at 20 µg/mL [1] is on record?
The inhibition at 20 µg/mL was 99%.

Which inhibition at 20 µg/mL [1] does the source give for `CC(C)COCc1cc(O)c(O)c(Br)c1Cc1c(Br)c(O)c(O)c(Br)c1Br` [Compound 11, 3,4,6-tribromo-5-(2-bromo-3,4-dihydroxy-6-(isobutoxymethyl)benzyl)benzene-1,2-diol] here?
The inhibition at 20 µg/mL was 101%.

With `Cc1cc(O)c(O)c(Br)c1Cc1c(Br)c(O)c(O)c(Br)c1Br` [Compound 12, 3,4,6-tribromo-5-(2-bromo-3,4-dihydroxy-6-methylbenzyl)benzene-1,2-diol] as the compound, how does the inhibition at 20 µg/mL [1] read?
The inhibition at 20 µg/mL was 57.7%.

With `CCc1oc2ccccc2c1C(=O)c1cc(Br)c(O)c(Br)c1` [benzbromarone] as the compound, how does the pIC50 (PTP1B) read?
The pIC50 was 4.59.

Source: patent US8816129B2, “PTP1B inhibitors, synthesis thereof and application thereof in preparation of medicaments for treating type 2 diabetes mellitus” (Institute of Oceanology, Chinese Academy of Sciences, priority 2010, dated 2014)
